The values below come from ChEMBL document CHEMBL5653615 (J Biol Chem, 2013).

One may read the inhibition as the relative decrease from the control value, in per cent.

Assay [1] concerns the target T1, Activin receptor type-1 (Homo sapiens) (UniProt Q04771).
T1 sequence (whole entry): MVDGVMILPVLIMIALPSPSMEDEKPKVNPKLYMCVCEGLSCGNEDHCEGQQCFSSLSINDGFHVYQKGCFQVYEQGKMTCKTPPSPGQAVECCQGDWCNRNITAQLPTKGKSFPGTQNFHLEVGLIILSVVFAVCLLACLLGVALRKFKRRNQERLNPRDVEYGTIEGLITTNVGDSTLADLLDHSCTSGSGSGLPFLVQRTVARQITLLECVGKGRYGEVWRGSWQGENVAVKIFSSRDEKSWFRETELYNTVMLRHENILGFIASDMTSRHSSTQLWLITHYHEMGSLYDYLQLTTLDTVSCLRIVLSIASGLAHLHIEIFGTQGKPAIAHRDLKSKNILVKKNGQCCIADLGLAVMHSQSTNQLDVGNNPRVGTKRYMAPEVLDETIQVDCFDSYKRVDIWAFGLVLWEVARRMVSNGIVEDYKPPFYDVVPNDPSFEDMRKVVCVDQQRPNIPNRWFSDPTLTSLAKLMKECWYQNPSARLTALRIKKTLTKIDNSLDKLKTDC
Kind of assay: Inhibition of human ALK2 at 1.82 nM by HotSpot assay relative to control.

Assay [2] concerns the target CDK9/cyclin T1 (Homo sapiens) (UniProt O60563+P50750). Kind of assay: Inhibition of human CDK9/cyclin T1 at 1.82 nM by HotSpot assay relative to control. It is filed as protein-complex assay.
Assay [3] concerns the target T2, Mitogen-activated protein kinase kinase kinase kinase 2 (Homo sapiens) (UniProt Q12851).
T2 sequence (whole entry): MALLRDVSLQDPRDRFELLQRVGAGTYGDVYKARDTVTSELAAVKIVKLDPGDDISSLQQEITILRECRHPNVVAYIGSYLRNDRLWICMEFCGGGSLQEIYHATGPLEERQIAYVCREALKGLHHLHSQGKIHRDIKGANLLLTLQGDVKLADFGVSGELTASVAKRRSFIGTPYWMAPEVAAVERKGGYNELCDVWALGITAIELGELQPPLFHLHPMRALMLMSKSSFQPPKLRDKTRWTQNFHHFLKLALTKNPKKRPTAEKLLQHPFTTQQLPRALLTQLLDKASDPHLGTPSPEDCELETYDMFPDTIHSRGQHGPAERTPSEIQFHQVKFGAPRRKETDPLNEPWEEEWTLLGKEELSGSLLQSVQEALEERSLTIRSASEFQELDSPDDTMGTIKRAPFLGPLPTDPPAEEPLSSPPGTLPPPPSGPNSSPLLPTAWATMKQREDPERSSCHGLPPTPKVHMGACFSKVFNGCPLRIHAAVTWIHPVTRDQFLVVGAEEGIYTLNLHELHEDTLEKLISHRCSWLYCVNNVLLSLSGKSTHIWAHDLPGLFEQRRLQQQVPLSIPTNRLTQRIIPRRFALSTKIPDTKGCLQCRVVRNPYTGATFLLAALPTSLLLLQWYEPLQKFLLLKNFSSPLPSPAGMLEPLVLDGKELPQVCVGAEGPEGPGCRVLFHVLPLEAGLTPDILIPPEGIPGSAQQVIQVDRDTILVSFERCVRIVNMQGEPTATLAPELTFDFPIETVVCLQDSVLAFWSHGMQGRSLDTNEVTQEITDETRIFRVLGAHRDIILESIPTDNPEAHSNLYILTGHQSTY
Kind of assay: Inhibition of human GCK at 1.82 nM by HotSpot assay relative to control.

Assay [4] addresses Protein kinase C gamma type (Homo sapiens) (UniProt P05129). The assay is described as follows: Inhibition of human PKCg at 1.82 nM by HotSpot assay relative to control.
The target in assay [5] is Tyrosine-protein kinase Fgr (Homo sapiens) (UniProt P09769). Kind of assay: Inhibition of human FGR at 18.6 nM by HotSpot assay relative to control.
Chain of Tyrosine-protein kinase Fgr (Homo sapiens) (P09769 2-529 limits assumed): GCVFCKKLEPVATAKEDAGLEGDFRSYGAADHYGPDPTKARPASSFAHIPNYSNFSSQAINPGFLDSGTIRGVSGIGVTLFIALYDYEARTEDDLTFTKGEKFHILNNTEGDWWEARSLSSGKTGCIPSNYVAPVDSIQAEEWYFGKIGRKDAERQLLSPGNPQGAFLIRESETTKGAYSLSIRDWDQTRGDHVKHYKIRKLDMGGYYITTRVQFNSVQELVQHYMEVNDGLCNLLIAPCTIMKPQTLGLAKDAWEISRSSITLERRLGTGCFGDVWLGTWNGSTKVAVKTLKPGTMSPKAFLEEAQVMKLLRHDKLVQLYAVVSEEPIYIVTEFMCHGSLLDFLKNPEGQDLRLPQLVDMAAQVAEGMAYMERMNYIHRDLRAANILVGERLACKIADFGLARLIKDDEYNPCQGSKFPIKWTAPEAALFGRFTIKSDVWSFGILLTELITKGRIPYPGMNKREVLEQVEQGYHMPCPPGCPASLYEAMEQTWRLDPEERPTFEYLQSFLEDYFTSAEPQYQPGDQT
Assay [6] addresses Myosin light chain kinase, smooth muscle (Homo sapiens) (UniProt Q15746). Kind of assay: Inhibition of human MYLK at 18.6 nM by HotSpot assay relative to control.
The target of assay [7] is T3, Testis-specific serine/threonine-protein kinase 1 (Homo sapiens) (UniProt Q9BXA7).
T3 sequence (whole entry): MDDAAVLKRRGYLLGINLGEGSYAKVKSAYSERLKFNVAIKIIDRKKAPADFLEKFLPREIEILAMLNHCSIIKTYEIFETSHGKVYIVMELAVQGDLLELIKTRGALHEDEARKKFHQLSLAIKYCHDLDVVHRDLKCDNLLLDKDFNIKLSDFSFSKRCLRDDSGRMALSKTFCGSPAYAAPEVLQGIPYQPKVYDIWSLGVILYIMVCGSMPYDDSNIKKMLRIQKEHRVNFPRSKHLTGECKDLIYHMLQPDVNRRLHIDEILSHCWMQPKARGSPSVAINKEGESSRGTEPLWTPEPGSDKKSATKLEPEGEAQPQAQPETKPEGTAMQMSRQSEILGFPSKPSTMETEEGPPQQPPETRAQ
The assay is described as follows: Inhibition of human TSSK1 at 18.6 nM by HotSpot assay relative to control.

For assay [8], the target named is T4, Serine/threonine-protein kinase TAO3 (Homo sapiens) (UniProt Q9H2K8).
T4 sequence (whole entry): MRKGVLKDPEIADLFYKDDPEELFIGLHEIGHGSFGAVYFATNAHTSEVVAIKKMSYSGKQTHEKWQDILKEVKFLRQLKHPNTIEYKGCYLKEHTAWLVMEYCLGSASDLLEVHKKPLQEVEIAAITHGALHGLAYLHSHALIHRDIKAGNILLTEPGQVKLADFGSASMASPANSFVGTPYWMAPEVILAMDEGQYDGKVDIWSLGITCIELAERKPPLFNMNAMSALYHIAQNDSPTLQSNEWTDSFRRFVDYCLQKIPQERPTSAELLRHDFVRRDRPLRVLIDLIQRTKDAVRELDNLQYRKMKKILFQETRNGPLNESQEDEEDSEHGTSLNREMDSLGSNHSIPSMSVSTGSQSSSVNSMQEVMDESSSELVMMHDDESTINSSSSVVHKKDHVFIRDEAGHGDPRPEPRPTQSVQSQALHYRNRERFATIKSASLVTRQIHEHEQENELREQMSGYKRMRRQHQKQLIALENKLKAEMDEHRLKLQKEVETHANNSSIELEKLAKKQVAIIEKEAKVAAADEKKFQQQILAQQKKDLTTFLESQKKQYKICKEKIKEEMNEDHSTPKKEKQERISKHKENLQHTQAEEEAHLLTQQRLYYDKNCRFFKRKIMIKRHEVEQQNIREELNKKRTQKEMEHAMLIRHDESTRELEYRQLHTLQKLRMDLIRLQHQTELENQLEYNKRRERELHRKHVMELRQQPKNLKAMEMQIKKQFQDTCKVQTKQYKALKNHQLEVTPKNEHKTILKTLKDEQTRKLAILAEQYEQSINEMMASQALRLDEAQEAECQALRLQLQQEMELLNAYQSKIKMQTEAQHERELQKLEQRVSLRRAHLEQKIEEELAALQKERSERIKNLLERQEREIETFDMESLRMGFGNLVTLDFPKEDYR
Kind of assay: Inhibition of human JIK at 18.6 nM by HotSpot assay relative to control.

Each structure is given as a SMILES string.

Chain of Myosin light chain kinase, smooth muscle (Homo sapiens) (Q15746 whole entry): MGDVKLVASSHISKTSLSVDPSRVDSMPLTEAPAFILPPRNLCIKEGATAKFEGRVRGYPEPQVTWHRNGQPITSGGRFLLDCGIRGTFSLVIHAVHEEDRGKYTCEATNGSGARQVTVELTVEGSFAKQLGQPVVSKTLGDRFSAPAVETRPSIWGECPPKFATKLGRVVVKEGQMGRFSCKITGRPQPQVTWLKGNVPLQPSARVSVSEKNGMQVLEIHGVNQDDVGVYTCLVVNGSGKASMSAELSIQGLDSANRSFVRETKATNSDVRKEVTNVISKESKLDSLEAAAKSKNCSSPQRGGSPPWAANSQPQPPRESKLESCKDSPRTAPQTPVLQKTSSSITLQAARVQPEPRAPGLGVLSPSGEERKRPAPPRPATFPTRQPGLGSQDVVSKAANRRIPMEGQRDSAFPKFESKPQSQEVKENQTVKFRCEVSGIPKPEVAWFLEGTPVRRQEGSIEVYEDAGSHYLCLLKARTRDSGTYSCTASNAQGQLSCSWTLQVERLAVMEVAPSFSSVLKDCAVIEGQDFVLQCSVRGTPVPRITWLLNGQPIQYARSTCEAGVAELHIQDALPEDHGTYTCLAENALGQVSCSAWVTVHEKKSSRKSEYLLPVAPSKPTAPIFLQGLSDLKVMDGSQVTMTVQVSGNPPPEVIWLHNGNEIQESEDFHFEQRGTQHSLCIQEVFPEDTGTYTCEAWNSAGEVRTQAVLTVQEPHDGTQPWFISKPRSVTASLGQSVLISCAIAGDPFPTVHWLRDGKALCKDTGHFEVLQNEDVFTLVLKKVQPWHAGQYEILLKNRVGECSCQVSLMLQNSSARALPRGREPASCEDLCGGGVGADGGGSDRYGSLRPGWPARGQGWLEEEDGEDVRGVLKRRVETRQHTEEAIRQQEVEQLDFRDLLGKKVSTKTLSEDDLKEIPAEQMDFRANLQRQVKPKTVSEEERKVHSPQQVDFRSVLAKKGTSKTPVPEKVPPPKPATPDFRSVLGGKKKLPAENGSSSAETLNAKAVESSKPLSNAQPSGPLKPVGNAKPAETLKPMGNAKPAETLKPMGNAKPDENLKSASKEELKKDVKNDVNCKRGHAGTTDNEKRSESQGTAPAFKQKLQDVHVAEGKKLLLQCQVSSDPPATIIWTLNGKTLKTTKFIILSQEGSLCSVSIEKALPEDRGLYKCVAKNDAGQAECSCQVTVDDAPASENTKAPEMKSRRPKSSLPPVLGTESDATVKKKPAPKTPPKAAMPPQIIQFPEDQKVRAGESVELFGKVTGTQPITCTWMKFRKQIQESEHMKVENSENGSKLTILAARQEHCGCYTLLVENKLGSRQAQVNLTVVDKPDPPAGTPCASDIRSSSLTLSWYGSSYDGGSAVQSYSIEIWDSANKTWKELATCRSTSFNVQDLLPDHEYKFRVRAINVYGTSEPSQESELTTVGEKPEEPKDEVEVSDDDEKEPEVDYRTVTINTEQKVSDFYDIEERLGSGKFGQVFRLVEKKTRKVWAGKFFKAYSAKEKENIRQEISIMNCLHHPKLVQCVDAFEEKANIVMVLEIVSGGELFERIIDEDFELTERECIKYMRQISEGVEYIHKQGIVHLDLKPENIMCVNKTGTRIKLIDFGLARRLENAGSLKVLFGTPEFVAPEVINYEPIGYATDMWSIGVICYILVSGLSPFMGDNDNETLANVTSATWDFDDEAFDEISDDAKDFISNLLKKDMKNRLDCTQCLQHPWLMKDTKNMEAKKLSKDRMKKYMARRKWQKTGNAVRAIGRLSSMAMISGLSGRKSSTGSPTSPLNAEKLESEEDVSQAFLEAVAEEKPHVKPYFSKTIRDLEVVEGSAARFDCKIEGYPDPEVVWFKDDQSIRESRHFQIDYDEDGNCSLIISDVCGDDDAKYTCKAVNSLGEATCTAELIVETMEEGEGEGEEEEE

In the case of `C[C@@]1(C(=O)Nc2ccc(F)nc2)CCCN1c1nc(Nc2cc(C3CC3)n[nH]2)c2cccn2n1`, the inhibition in assay [1] was 5.9%; in assay [2], 1.5%; in assay [3] it was -0.04%; in assay [4], -7.52%.

For `C[C@]1(O)C[C@@H](c2nc(-c3ccc4ccc(-c5ccccc5)nc4c3)c3c(N)nccn32)C1`, the inhibition in assay [5] is -9.34%; in assay [6], 2.54%; in assay [7] it was -3.16%; in assay [8], 4.89%.
